4 compounds from article PMC8750417, “Intracellular Amplifiers of Reactive Oxygen Species Affecting Mitochondria as Radiosensitizers” (Cancers, 2021) can be followed below.

Values joined by “and” are separate entries in the source; they are usually repeats but may differ in a detail not shown here. Identical values can stand only once. Like-named read-outs stand apart in the source and are kept apart here.

Data set [1] concerns SAS cells. In words: Clonogenic assay (colony formation), SAS. In kind it is cell-based, human. The following applies: for Relative clonogenic survival: 48 h exposure, untreated control = 1. The method, then: Optimization of concentration of prodrugs and controls / clonogenic assay The clonogenic survival assay is a classical approach to monitor radioresponse and drug- induced radiosensitization in cancer cells. We therefore initially determined whether the supposedly non -toxic drug concentrations defined for combinatorial treatment testing affect single cell colony formation capacity. For this pu rpose, exponentially growing SAS and FaDu cells were dissociated, single cell suspensions were prepared in standard DMEM and seeded in 6 -well plates at […]
defined low density (150-300 cells in 1 ml per well). After 8 h of incubation to allow cell adherence, 50% of the supernatant was exchanged by media containing the respective prodrugs at 2x concentration and exposed for 48 h. Treatment was then terminated by medium removal, and cells were allowed to grow for a period of ≥5-6 cell divisions estimated from the cell line-specific doubling times of the respective untreated controls (~7 days for SAS and ~10 days for FaDu cells). Control cells were always handled in parallel to the treated cells and thus exposed to the corresponding DMSO concentration(s). After the defined growth intervals, cells were fixed, stained and colonies of >50 cells were manually counted at low magnification to calculate plating efficiencies as the number of counted colonies relative to the number of seeded cells. Drug effect on clonogenic survival was then estimated by normalizing the colony formation of control cells to 1 (Table S9). […]

Data set [2] has as its system SAS cells. In words: Cytotoxicity MTT assay, SAS. Type of data set: cell-based, human. The following applies: for EC50: read-out: 50% cell survival (EC50). The method, then:
(§1) Optimization of concentration of prodrugs and controls / MTT assay
(§2) The MTT assay was also applied to assess the impact of various drugs (0.01-100 µM) on the viability of the two human head and neck squamous carcinoma cell (HNSCC) lines SAS and FaDu as well as retinal pigment epithelial ARPE-19 cells and human fibroblasts (HF). Cells were seeded into 96-well plates at concentrations of 4000 and 2000 cells per […]
(§3) h before exposure to the drugs. All drug dilutions were prepared from 20 mM stock solutions in DMSO. The final DMSO concentration was set to 0.5% in all sample s including control. After completion of the treatment, the wells were processed according to the routine MTT protocol as described above; the formazan absorbance was then measured on a Biotek Epoch Microplate Spectrophotometer at 590 nm and corrected for the background signal at 620 nm. N≥3 independent experiments were performed for each drug candidate, cell type and treatment interval. Cell survival was recorded as function of the drug concentration, and dose-response curves were fitted with the Boltzmann equation where appropriate. We calculated the half-maximal response (EC50) as well as the EC20 (80% survival) according to the line curve (see Tables S6-S8). EC20-values were used as a basis to select the compound-specific non-toxic drug concentrations for combination with radiotherapy.
In general terms: Formazan colour is commonly taken as a measure of viable cells.

Data set [3] deals with FaDu cells. In words: Cytotoxicity MTT assay, FaDu. Type of data set: cell-based, human. Particulars: for EC50: read-out: 50% cell survival (EC50). The protocol: as §1, §2, §3
The subject of data set [4] is BL-2 cells. In words: Cell viability, MTT assay, BL-2. Type of data set: cell-based, human. The protocol: (§4) Determination of viability of cells in the presence of prodrugs and controls A2780 and BL-2 cells The medium was removed, and the cells were washed two times with DPBS, trypsinated, and resuspended in RPMI 1640 medium (A2780) supplemented with 5% FBS (for 24 h and 48 h assay) or 10% FBS (for 96 h assay) , 1% L-glutamine, and 1% penicillin/streptomycin.
(§5) A2780 cells: This suspension was spread in the wells of a 96 -well microtiter plate (25000 cells for A2780 per well per 100 μL) and left standing at 37 °C in the chamber filled with CO2 (5%) for overnight. Stock solutions of prodrugs of different concentra tions (1 μL, solvent dmso, final concentrations in wells were 2, 5, 10, 30, 50 μM) were added to the wells and incubated for specific periods of time. Four experiments were conducted for each concentration of the prodrug. Finally, 3-(4,5-dimethylthiazol-2-yl)-2,5-diphenyltetrazolium bromide (MTT, 20 μL of the solution prepared by dissolving MTT (5 mg) in DPBS buffer (1 mL)) was added to each well, incubated for 3 h, treated with sodium dodecyl sulfate (SDS) solution (90 μL, 10% solution in 0.01 M aqueous HC l), and incubated overnight. Afterward, the intensity of the absorbance at 590 nm was measured.
(§6) MTT is converted in live cells to blue dye with the absorbance maximum λ max at 590 nm.
The absorbance at 690 nm was taken as a baseline value. The baseline corrected absorbance at 590 nm (A(590 nm) − A(690 nm)) was applied to calculate the relative number of viable cells. IC50 values were determined by fitting the experimental data expressing the number of viable cells (%, Y-axis) versus drug concentration (μM, X-axis) with a line curve and the X-axis value corresponding to 50% viability was considered as IC50 value according to the line curve (Figure S50, Table S2).
BL-2 cells: The cells were centrifuged, the medium was removed, and the cells were washed two times with DPBS and re-suspended in RPMI 1640 medium containing 5% (48 h incubation) or 10% FBS (96 h incubation), 1% L-glutamine, and 1% penicillin/ streptomycin. This suspension was spread in the wells of a 96-well microtiter plate (50000 cells per well per 100 μL). Other steps were identical to those was described in determination of viability of adherent cells (given above) (Table S3).

For data set [5], the system named is A2780 cells. In words: Cell viability, MTT assay, A2780. In kind it is cell-based, human. The method, then: as §4, §5, §6
The absorbance at 690 nm was taken as a baseline value. The baseline corrected absorbance at 590 nm (A(590 nm) − A(690 nm)) was applied to calculate the relative number of viable cells. IC50 values were determined by fitting the experimental data expressing the number of viable cells (%, Y-axis) versus drug concentration (μM, X-axis) with a line curve and the X-axis value corresponding to 50% viability was considered as IC50 value according to the line curve (Figure S50, Table S2). […]

For data set [6], the system named is ARPE-19 cells. In words: Cytotoxicity MTT assay, ARPE-19. Type of data set: cell-based. The following applies: read-out: 50% cell survival (EC50). The method, then: Study of synergy of prodrugs with radiotherapy for SAS and FaDu cells
as §1, §2, §3

By EC50 is commonly meant the midpoint of the concentration-response curve. The IC50 is the midpoint of a concentration-inhibition curve. The low end stands for greater potency, the high end for weaker potency. Regarding `[Fe+2].c1cc[cH-]c1.c1cc[cH-]c1` [compound 6, ferrocene], in data set [1] (25 µM), the Relative clonogenic survival came out at 0.88 ± 0.10. Further, the “80% cell survival (EC20)” value in data set [2] (24h), in data set [2] (48h), in data set [3] (24h) and in data set [3] (48h) was above 50 µM throughout. Further, the EC50 in data set [2] (24h) is above 50 µM; in data set [2] (48h), above 50 µM; in data set [3] (24h), above 50 µM; in data set [3] (48h), above 50 µM; in data set [6] (ARPE-19, 24h), above 50 µM; in data set [6] (ARPE-19, 48h), above 50 µM. Also, the IC50 in data set [4] (BL-2, 48 h incubation) was above 100 µM; in data set [4] (BL-2, 96 h incubation) it was above 100 µM; in data set [5] (A2780, 24 h incubation), above 100 µM; in data set [5] (A2780, 48 h incubation), above 100 µM; in data set [5] (A2780, 96 h incubation), above 100 µM.

Regarding `CCOC(=O)CCCCCn1cc(CN(C(=O)OCc2ccc(B3OC(C)(C)C(C)(C)O3)cc2)[c-]2cccc2)nn1.[Fe+2].c1cc[cH-]c1` [compound 1], the concentration for half-maximal inhibition (IC50) in data set [4] (BL-2, 48 h incubation) is 35 ± 2 µM; in data set [4] (BL-2, 96 h incubation) it was 16.9 µM and 17 µM; in data set [5] (A2780, 48 h incubation) it was 32 ± 3 µM; in data set [5] (A2780, 96 h incubation), 30 ± 5 µM.

What is called cell viability is a per cent measure of how many cells are alive, often set against a control. Lower therefore signals a greater loss of cells. With `CC1(C)OB(c2ccc(COC(=O)N(Cc3cn(Cc4ccc(Cn5cc(Cc6ccccc6)nn5)cc4)nn3)[c-]3cccc3)cc2)OC1(C)C.[Fe+2].c1cc[cH-]c1` [2c], the figures for the Relative clonogenic survival in data set [1] (10 µM) and in data set [1] (25 µM) were 0.78 ± 0.13 and 0.70 ± 0.10, respectively. In addition, the “growth of colonies reduced to” value in data set [1] (25 µM) is listed as 70 ± 10%. In addition, the “80% cell survival (EC20)” value in data set [2] (24h) is given as above 50 µM; in data set [2] (48h), 10.4 ± 6.8 µM; in data set [3] (24h), above 50 µM; in data set [3] (48h) it was 18.0 ± 5.1 µM. For the same compound, the concentration giving a half-maximal response (EC50) in data set [2] (24h) was above 50 µM; in data set [2] (48h) it was above 50 µM; in data set [3] (24h), above 50 µM; in data set [3] (48h), above 50 µM; in data set [6] (ARPE-19, 24h), above 50 µM; in data set [6] (ARPE-19, 48h) it was above 50 µM. Further, the IC50 in data set [4] (BL-2, 48 h incubation) was 40.1 ± 6.4 µM; in data set [4] (BL-2, 96 h incubation), 5.7 ± 2.7 µM; in data set [5] (A2780, 24 h incubation) it was above 30 µM; in data set [5] (A2780, 48 h incubation), above 30 µM; in data set [5] (A2780, 96 h incubation), 4 ± 0.5 µM. The “cell viability at which the effect is saturated” value is 70% in data set [5] (A2780, 24 h); 50% in data set [5] (A2780, 48 h); 43% in data set [5] (A2780, 96 h).

As to `CC1(C)OB(c2ccc(COC(=O)N(Cc3cccc(CN4CCCCC4)c3)[c-]3cccc3)cc2)OC1(C)C.[Fe+2].c1cc[cH-]c1` [5b], the Relative clonogenic survival is listed as 0.96 ± 0.06 in data set [1] (0.5 µM), 0.76 ± 0.06 in data set [1] (1 µM) and 0.36 ± 0.15 in data set [1] (2.5 µM). Moreover, in data set [1] (10-fold lower dose than 25 µM), the “colony formation reduced to” value was 36 ± 15%. For the same compound, the “80% cell survival (EC20)” value is 7.0 ± 1.5 µM in data set [2] (24h), 2.4 ± 1.3 µM in data set [2] (48h) and 11.5 ± 1.3 µM in data set [3] (24h). Moreover, the EC50 in data set [2] (24h) came to 18.7 ± 4.7 µM; in data set [2] (48h), 5.8 ± 0.8 µM; in data set [3] (24h) it was 26.3 ± 3.4 µM; in data set [3] (48h), 19.8 ± 0.3 µM; in data set [6] (ARPE-19, 24h) it was 40.4 ± 2.5 µM; in data set [6] (ARPE-19, 48h) it was 26.6 ± 8.3 µM. Moreover, the IC50 stood at 5 ± 2 µM in data set [4] (BL-2, 48 h incubation); 5 ± 3 µM in data set [4] (BL-2, 96 h incubation); 7 ± 2 µM in data set [5] (A2780, 48 h incubation); 7 ± 2 µM in data set [5] (A2780, 96 h incubation).
